In assay [1] the target is T1, BRD1 (Homo sapiens, UniProt O95696).
T1 construct: purchased Eurofins DiscoverX (BROMOscan, BromoMAX)
T1 sequence (O95696 1-1058): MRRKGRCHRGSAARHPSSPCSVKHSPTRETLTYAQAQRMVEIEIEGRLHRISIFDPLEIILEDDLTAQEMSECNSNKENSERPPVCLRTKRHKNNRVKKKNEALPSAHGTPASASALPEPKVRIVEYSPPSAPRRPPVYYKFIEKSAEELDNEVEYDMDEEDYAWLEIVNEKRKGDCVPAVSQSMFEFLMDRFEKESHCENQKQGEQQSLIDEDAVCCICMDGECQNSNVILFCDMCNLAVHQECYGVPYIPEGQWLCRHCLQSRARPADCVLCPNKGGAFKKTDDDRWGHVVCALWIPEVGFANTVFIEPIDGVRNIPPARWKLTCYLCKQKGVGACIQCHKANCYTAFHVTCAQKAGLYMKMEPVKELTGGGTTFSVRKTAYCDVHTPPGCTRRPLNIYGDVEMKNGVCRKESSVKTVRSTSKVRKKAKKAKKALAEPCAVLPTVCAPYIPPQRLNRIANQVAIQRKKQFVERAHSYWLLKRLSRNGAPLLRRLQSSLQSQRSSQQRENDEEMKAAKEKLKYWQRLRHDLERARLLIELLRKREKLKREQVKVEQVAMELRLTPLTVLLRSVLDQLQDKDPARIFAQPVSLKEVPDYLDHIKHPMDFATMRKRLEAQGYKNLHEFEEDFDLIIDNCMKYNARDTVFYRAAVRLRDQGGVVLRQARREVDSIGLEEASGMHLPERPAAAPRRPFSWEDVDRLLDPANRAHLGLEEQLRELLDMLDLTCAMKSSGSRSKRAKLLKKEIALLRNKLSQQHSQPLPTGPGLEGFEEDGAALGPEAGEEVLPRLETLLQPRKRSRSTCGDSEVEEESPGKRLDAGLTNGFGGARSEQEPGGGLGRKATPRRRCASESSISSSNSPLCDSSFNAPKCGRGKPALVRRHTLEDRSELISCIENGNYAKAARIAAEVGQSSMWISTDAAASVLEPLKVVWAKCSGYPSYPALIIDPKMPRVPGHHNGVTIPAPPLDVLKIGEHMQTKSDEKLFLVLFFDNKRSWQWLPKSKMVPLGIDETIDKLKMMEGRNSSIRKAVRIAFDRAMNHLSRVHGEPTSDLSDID
Put plainly: BROMOscan competition binding assay (BromoMAX, Eurofins DiscoverX). The following applies: for Percent Control BRD1: compound concentration 1000 nM, lower percentage control = stronger affinity.

The target in assay [2] is T2, BRD7 (Homo sapiens, UniProt Q9NPI1).
T2 construct: purchased Eurofins DiscoverX (BROMOscan, BromoMAX)
T2 sequence (Q9NPI1 1-651): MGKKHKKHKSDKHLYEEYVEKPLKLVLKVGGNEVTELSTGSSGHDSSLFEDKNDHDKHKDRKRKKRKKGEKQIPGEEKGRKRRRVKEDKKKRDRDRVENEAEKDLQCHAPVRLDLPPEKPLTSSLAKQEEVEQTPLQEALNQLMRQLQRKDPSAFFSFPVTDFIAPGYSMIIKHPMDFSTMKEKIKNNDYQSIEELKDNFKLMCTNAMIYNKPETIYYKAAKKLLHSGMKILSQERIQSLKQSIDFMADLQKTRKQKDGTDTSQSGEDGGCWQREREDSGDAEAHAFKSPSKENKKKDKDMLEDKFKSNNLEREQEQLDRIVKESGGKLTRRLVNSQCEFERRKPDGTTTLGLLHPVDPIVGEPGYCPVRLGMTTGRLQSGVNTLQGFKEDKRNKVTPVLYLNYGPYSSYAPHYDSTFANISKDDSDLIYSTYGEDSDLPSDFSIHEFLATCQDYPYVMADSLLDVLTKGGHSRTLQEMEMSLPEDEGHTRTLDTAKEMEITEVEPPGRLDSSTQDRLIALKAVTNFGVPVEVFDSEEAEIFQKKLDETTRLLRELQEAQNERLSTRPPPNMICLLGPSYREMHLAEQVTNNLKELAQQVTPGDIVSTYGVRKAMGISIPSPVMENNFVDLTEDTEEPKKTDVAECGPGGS
The assay is described as above. To be noted: for Percent Control BRD7: compound concentration 1000 nM, lower percentage control = stronger affinity.

Assay [3] addresses T3, GCN5L2 (Homo sapiens, UniProt Q92830).
T3 construct: purchased Eurofins DiscoverX (BROMOscan, BromoMAX)
The description is as above. The following applies: for Percent Control GCN5L2: compound concentration 1000 nM, lower percentage control = stronger affinity.

The target in assay [4] is T4, FALZ (Homo sapiens, UniProt Q12830).
T4 construct: purchased Eurofins DiscoverX (BROMOscan, BromoMAX)
The description is as above. The following applies: for Percent Control FALZ: compound concentration 1000 nM, lower percentage control = stronger affinity.

The target in assay [5] is T5, EP300 (Homo sapiens, UniProt Q09472).
T5 construct: purchased Eurofins DiscoverX (BROMOscan, BromoMAX)
Described as above. The following applies: for Percent Control EP300: compound concentration 1000 nM, lower percentage control = stronger affinity.

Assay [6] addresses T6, TAF1L(2) (Homo sapiens, UniProt Q8IZX4).
T6 construct: TAF1L(2); purchased Eurofins DiscoverX (BROMOscan, BromoMAX)
T6 sequence (Q8IZX4 1519-1654 limits assumed): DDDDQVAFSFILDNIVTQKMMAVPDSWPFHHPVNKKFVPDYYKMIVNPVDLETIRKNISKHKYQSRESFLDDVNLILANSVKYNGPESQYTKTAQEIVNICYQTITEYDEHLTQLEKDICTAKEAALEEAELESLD
Described as above. The following applies: for Percent Control TAF1L(2): compound concentration 1000 nM, lower percentage control = stronger affinity.

The target in assay [7] is T7, BRD2-BD2 (Homo sapiens, UniProt P25440).
T7 construct: human BRD2 (BD1: 65-194; BD2: 347-455); Avi tag (biotinylated); made in house; host or cells: E. coli BL21(DE3)
The experiment in a line: SPR binding of peptides to immobilised biotinylated BET bromodomain. The source says:
(§1) We next assessed the ability of each of the three lead peptides to bind BRD3-BD1. […] To assess selectivity for other BET BDs, we used SPR to determine the binding affinity of each peptide toward the remaining BDs from BRD2, BRD3, and BRD4 (Fig. 1B). […]
(§2) Crude peptides were purified by reverse-phase high-performance liquid chromatography using a Chromolith Prep column (Merck) on a Prominence LC-20AP system (Shimadzu) (Solvent A: 0.1% TFA in H2O, Solvent B: 0.1% TFA in acetonitrile) to >95% purity as determined by mass spectrometry (Fig. S17). Purified peptides were reconstituted in DMSO and concentrations determined from their absorbance at 280 nm in 5% DMSO using predicted extinction coefficients.
(§3) Surface plasmon resonance (SPR)
(§4) Measurements were conducted on a T200 or S200 (GE Healthcare) and data analysed using the Biacore Insight Evaluation Software. Experiments were performed at 4 °C in single cycle kinetics mode. Biotinylated BET bromodomains were immobilised on a CAP chip (GE Healthcare) with a […]
(§5) pH 7.5 was used as the running buffer. […]
In general terms: Surface plasmon resonance follows binding to a sensor surface in real time, without labels.

Assay [8] has as its target T8, BRD3-BD1 (Homo sapiens, UniProt Q15059).
T8 construct: BRD3 (BD1: 25-147); Avi tag (biotinylated); made in house; host or cells: E. coli BL21(DE3)
The description is as above.
Description: as §1, §2, §3, §4, §5

Where [9] appears, read: gray boxed value: no reproducible signals observed at the concentrations used.
Where [10] appears, read: 4 C, geometric mean and SD of two to five measurements.

The values that follow come from publication PMC7604503, “Cyclic peptides can engage a single binding pocket through highly divergent modes” (Proceedings of the National Academy of Sciences of the …, 2020).

Where a SMILES comes first, the peptide text is derived from it. Bridges are numbered along the chain shown (N, C = ends).

The Kd is the free concentration of one partner at which half of the binding sites on the other are occupied at equilibrium, for simple one-to-one binding. High values mean lower affinity, low ones higher affinity.

T3 sequence (Q92830 whole entry): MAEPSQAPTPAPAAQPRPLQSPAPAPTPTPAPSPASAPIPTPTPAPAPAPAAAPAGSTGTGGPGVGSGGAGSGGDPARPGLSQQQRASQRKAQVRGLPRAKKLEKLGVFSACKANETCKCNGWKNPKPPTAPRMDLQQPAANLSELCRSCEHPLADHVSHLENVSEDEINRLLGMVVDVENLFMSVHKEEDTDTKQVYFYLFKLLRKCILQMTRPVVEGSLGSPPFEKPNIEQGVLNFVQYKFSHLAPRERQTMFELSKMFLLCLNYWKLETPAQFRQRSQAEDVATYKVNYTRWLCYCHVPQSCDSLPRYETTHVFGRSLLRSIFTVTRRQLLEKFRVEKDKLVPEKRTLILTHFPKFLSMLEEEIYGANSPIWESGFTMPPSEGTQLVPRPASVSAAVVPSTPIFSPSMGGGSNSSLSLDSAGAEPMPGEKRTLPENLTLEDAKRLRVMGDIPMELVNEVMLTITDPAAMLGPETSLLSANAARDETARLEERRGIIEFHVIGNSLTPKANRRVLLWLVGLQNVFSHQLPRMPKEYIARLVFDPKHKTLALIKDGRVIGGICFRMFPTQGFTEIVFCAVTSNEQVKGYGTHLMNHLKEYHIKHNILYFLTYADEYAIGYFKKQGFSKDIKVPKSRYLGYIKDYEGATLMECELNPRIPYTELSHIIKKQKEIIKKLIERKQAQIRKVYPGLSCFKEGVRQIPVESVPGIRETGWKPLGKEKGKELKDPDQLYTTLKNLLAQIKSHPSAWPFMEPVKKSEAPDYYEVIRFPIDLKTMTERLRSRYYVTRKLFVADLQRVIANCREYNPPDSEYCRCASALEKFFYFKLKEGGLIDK
T7 sequence (P25440 347-455): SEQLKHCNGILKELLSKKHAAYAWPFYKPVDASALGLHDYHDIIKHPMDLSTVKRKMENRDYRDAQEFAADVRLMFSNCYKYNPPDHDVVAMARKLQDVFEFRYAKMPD
T5 sequence (Q09472 whole entry): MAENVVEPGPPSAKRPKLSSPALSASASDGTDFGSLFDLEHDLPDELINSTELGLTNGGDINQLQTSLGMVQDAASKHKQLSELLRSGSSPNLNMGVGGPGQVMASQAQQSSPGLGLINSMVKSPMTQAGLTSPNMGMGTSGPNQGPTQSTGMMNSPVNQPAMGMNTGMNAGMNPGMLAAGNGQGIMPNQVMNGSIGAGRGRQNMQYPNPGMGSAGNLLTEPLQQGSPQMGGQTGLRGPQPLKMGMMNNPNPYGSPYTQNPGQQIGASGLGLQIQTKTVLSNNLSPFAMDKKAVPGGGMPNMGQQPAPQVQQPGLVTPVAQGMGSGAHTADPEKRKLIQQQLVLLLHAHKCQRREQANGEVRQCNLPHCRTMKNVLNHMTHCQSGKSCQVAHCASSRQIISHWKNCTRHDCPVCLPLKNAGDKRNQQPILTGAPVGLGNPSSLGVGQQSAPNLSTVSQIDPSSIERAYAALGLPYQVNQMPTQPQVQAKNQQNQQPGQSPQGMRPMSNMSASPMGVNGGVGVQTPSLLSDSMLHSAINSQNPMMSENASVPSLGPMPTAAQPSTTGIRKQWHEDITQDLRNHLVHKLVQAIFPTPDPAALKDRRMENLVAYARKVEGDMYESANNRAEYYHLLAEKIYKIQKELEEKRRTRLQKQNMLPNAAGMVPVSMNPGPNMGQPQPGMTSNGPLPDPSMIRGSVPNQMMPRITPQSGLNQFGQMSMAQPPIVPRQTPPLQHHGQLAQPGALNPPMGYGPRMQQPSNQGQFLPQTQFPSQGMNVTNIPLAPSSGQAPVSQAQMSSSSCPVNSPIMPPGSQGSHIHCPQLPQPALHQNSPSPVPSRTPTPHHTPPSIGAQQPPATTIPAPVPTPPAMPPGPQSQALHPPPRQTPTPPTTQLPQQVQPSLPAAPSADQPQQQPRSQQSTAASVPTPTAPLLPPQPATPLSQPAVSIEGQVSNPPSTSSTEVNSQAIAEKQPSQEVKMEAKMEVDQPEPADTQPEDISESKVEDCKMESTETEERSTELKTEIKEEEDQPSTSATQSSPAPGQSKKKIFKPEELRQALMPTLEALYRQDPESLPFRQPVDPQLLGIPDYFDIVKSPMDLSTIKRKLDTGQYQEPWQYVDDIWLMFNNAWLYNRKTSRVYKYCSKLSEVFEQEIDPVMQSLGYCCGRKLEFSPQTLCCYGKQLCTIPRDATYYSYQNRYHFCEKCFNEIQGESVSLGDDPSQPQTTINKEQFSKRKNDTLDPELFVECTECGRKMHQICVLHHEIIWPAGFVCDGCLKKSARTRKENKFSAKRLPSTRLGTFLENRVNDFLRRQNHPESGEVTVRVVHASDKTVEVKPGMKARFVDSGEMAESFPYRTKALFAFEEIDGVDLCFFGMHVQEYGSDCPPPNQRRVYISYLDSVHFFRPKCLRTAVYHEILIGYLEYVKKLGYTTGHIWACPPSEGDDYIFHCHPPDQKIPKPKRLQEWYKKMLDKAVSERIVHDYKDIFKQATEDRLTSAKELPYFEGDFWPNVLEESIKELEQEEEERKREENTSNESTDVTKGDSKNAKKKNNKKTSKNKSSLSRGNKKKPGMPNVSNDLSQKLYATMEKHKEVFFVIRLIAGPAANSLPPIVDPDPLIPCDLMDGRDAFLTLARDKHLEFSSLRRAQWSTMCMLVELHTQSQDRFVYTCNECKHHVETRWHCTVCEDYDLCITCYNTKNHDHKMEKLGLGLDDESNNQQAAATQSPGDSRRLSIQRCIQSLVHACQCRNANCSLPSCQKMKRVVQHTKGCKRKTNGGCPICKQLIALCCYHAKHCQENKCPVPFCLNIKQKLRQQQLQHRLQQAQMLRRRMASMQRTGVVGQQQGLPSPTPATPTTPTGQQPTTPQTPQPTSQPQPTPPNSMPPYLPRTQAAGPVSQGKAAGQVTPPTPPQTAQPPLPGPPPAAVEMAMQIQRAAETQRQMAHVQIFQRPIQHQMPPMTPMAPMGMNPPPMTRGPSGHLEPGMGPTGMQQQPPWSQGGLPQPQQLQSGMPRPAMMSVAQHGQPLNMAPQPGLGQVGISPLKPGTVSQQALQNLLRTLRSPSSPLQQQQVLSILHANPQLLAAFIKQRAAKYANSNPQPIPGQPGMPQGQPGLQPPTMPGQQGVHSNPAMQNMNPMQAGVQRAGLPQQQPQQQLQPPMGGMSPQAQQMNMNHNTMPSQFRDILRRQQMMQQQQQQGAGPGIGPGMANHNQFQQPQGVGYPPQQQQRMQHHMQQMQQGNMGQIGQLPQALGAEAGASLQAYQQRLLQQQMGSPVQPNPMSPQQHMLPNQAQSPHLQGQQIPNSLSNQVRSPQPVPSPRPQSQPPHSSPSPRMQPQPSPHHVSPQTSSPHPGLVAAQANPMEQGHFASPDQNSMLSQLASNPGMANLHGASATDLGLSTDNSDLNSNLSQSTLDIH
T8 sequence (Q15059 25-147): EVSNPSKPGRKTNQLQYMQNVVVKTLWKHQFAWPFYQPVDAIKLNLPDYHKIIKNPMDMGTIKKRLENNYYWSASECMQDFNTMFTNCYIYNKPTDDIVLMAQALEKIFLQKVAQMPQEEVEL

With `CC[C@H](C)[C@@H]1NC(=O)[C@H]([C@@H](C)O)NC(=O)[C@H](CCCCN)NC(=O)[C@H](Cc2c[nH]c3ccccc23)NC(=O)CSC[C@@H](C(N)=O)NC(=O)[C@H](CCC(N)=O)NC(=O)[C@H](CCCCNC(C)=O)NC(=O)[C@H]([C@@H](C)O)NC(=O)[C@H](CCCNC(=N)N)NC(=O)[C@H](Cc2c[nH]c3ccccc23)NC(=O)[C@H]([C@@H](C)O)NC(=O)[C@H](CCCCNC(C)=O)NC(=O)CNC(=O)[C@H](CCCCNC(C)=O)NC1=O` [3.1B] ({CH2CO}-WKTIK(Ac)GK(Ac)TWRTK(Ac)QC-NH2; thioether N-14), the “Percent Control BRD1” value in assay [1] is 100%. Further, in assay [2], the “Percent Control BRD7” value is reported as 99%. For the same molecule, the “Percent Control GCN5L2” value in assay [3] came out at 100%. For the same molecule, in assay [4], the “Percent Control FALZ” value is 73%. Also, the “Percent Control EP300” value in assay [5] came out at 100%. Besides, the “Percent Control TAF1L(2)” value in assay [6] turned out to be 100%. The Kd in assay [7] (setting [9]) is above 10000 nM; in assay [8] (setting [10]), 0.49 ± 0.63 nM.
Consider `CC[C@H](C)[C@@H]1NC(=O)[C@H](Cc2c[nH]c3ccccc23)NC(=O)[C@H](Cc2c[nH]c3ccccc23)NC(=O)CSC[C@@H](C(N)=O)NC(=O)CNC(=O)[C@H](CCCCNC(C)=O)NC(=O)[C@H](CCCCN)NC(=O)[C@H](C(C)C)NC(=O)[C@H](CCCCNC(C)=O)NC(=O)[C@@H]2CCCN2C(=O)[C@H]([C@@H](C)CC)NC1=O` [3.1C] ({CH2CO}-WWIIPK(Ac)VKK(Ac)GC-NH2; thioether N-11), for which the “Percent Control BRD1” value in assay [1] is recorded as 97%. Also, the “Percent Control BRD7” value in assay [2] came out at 96%. The “Percent Control GCN5L2” value in assay [3] is recorded as 100%. Also, in assay [4], the “Percent Control FALZ” value is recorded as 93%. Besides, the “Percent Control EP300” value in assay [5] is given as 100%. Further, the “Percent Control TAF1L(2)” value in assay [6] is 100%. Further, the Kd in assay [7] (setting [10]) worked out at 9.2 ± 25 nM; in assay [8] (setting [10]) it was 0.08 ± 0.049 nM.
Consider `CC[C@H](C)[C@H](NC(=O)[C@H](CCCNC(=N)N)NC(=O)[C@H](CCCCNC(C)=O)NC(=O)[C@H](CCCNC(=N)N)NC(=O)[C@H](CC(C)C)NC(=O)[C@@H]1CSCC(=O)N[C@@H](Cc2c[nH]c3ccccc23)C(=O)N[C@@H](CCCCNC(C)=O)C(=O)NCC(=O)N[C@@H](Cc2ccc(O)cc2)C(=O)N[C@@H](CC(C)C)C(=O)N1)C(=O)N[C@@H](CCC(N)=O)C(=O)N[C@@H](CCCNC(=N)N)C(=O)N[C@H](C(=O)N[C@@H](Cc1ccc(O)cc1)C(=O)N[C@@H](CC(N)=O)C(N)=O)[C@@H](C)O` [4.2C] ({CH2CO}-WK(Ac)GYLCLRK(Ac)RIQRTYN-NH2; thioether N-6), for which the figures for the percent of control binding at 1 µM in assay [1] and in assay [3] were 84% and 96%, respectively. Also, the remaining binding at 1 µM in assay [2] (read-out: Percent Control BRD7) came out at 97%; in assay [4] (read-out: Percent Control FALZ), 96%; in assay [5] (read-out: Percent Control EP300), 100%; in assay [6] (read-out: Percent Control TAF1L(2)) it was 100%. Moreover, the Kd was 22 ± 26 nM in assay [7] (setting [10]) and above 10000 nM in assay [8] (setting [9]).
